US10377770B2 (Novartis AG, priority 2015, dated 2019)
pIC50: −log10 of the molar value.

Target: C-Raf FL (full length CRAF with Y340E and Y341E activating mutations, co-expressed with h14-3-3 zeta) (Homo sapiens (Human), UniProt P04049, Y340E/Y341E)
Test: In vitro Raf activity determination, AlphaScreen p-MEK readout, c-Raf (C-Raf FL)
Assay type: biochemical
Conditions: c-Raf approximately 4 nM, ATP 1 μM, pre-incubation 60 minutes, reaction 1 hour
Outline: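 Full-length C-Raf (~4 nM) pre-incubated 60 min at room temperature with compound and kinase-dead biotinylated MEK1 (~10 nM) in Tris pH 7.5, 15 mM MgCl2, BSA, DTT. Reaction started with 1 μM ATP and run 1 h at room temperature. Phospho-MEK detected by AlphaScreen with anti-p-MEK antibody.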

C-Raf FL (full length CRAF with Y340E and Y341E activating mutations, co-expressed with h14-3-3 zeta), sequence (P04049 whole entry Y340E/Y341E): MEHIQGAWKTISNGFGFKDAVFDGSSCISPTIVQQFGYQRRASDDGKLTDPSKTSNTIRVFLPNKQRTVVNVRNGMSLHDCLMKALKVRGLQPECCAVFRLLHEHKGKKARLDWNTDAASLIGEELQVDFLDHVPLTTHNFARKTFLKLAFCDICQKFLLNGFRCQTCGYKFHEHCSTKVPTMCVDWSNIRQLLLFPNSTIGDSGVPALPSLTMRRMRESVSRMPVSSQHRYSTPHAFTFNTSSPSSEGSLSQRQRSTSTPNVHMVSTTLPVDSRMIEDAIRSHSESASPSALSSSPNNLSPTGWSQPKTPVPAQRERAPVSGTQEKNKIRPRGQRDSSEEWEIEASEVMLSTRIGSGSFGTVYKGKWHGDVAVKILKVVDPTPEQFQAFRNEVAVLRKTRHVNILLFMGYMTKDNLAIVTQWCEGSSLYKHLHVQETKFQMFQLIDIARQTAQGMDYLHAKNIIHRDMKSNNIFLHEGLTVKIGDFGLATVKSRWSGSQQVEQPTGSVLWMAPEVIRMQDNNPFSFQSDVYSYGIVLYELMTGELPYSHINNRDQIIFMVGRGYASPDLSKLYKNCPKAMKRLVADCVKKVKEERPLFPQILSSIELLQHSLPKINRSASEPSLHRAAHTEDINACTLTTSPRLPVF
C-Raf FL (full length CRAF with Y340E and Y341E activating mutations, co-expressed with h14-3-3 zeta), sequence (P63104 whole entry partner): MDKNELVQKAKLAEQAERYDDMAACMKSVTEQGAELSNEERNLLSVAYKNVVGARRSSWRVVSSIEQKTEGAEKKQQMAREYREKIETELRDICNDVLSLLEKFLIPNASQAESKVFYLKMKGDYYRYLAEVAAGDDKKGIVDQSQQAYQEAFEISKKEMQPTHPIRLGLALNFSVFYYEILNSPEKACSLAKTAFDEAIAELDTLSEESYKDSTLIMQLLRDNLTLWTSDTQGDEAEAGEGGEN

Q: With `Cc1ccc(NC(=O)c2ccnc(C(C)(F)F)c2)cc1-c1cnc2c(c1)N1CCOC[C@H]1[C@H](CO)C2` [Example 117, 2-(1,1-Difluoroethyl)-N-(3-((4aR,5R)-5-(hydroxymethyl)-1,2,4,4a,5,6-hexahydro-[1,4]oxazino[4,3-a][1,5]naphthyridin-9-yl)-4-methylphenyl)isonicotinamide] as the compound, how does the pIC50 read?
A: 11.33

Q: `Cc1ccc(NC(=O)c2ccnc(C(C)(F)F)c2)cc1-c1cnc2c(c1)N1CCOC[C@@H]1[C@@H](CO)C2` [Example 118, 2-(1,1-difluoroethyl)-N-(3-((4aS,5S)-5-(hydroxymethyl)-1,2,4,4a,5,6-hexahydro-[1,4]oxazino[4,3-a][1,5]naphthyridin-9-yl)-4-methylphenyl)isonicotinamide] was tested. Which pIC50 did it give?
A: 11.34

Q: With `Cc1ncc(NC(=O)c2cccc(C(F)(F)F)c2)cc1-c1cnc2c(c1)N1CCOC[C@H]1[C@H](CO)C2` [Example 120, N-(5-((4aR,5R)-5-(Hydroxymethyl)-1,2,4,4a,5,6-hexahydro-[1,4]oxazino[4,3-a][1,5]naphthyridin-9-yl)-6-methylpyridin-3-yl)-3-(trifluoromethyl)benzamide] as the compound, how does the pIC50 read?
A: 10.96

Q: How did the pIC50 turn out when `Cc1ncc(NC(=O)c2cccc(C(F)(F)F)c2)cc1-c1cnc2c(c1)N1CCOC[C@@H]1[C@@H](CO)C2` [Example 121, N-(5-((4aS,5S)-5-(hydroxymethyl)-1,2,4,4a,5,6-hexahydro-[1,4]oxazino[4,3-a][1,5]naphthyridin-9-yl)-6-methylpyridin-3-yl)-3-(trifluoromethyl)benzamide] was run?
A: 11.02

Q: `CCN1C(=O)C[C@@H]2COCCN2c2cc(-c3cc(NC(=O)c4ccnc(C(C)(F)F)c4)ccc3C)cnc21` [Example 126, (R)-2-(1,1-Difluoroethyl)-N-(3-(7-ethyl-6-oxo-1,2,4a,5,6,7-hexahydro-4H-[1,4]oxazino[4,3-d]pyrido[2,3-b][1,4]diazepin-10-yl)-4-methylphenyl)isonicotinamide] was tested. Which pIC50 did it give?
A: 10.80

Q: With `CCN1C(=O)C[C@H]2COCCN2c2cc(-c3cc(NC(=O)c4ccnc(C(C)(F)F)c4)ccc3C)cnc21` [Example 127, (S)-2-(1,1-difluoroethyl)-N-(3-(7-ethyl-6-oxo-1,2,4a,5,6,7-hexahydro-4H-[1,4]oxazino[4,3-d]pyrido[2,3-b][1,4]diazepin-10-yl)-4-methylphenyl)isonicotinamide] as the compound, how does the pIC50 read?
A: 10.32

Q: With `CCN1C(=O)C[C@@H]2COCCN2c2cc(-c3cc(NC(=O)c4ccnc(C(F)(F)F)c4)ccc3C)cnc21` [Example 129, (R)-N-(3-(7-Ethyl-6-oxo-1,2,4a,5,6,7-hexahydro-4H-[1,4]oxazino[4,3-d]pyrido[2,3-b][1,4]diazepin-10-yl)-4-methylphenyl)-2-(trifluoromethyl)isonicotinamide] as the compound, how does the pIC50 read?
A: 9.74

Q: With `CCN1C(=O)C[C@H]2COCCN2c2cc(-c3cc(NC(=O)c4ccnc(C(F)(F)F)c4)ccc3C)cnc21` [Example 130, (S)-N-(3-(7-ethyl-6-oxo-1,2,4a,5,6,7-hexahydro-4H-[1,4]oxazino[4,3-d]pyrido[2,3-b][1,4]diazepin-10-yl)-4-methylphenyl)-2-(trifluoromethyl)isonicotinamide] as the compound, how does the pIC50 read?
A: 9.43

Q: `Cc1ccc(NC(=O)c2ccnc(C(C)(F)F)c2)cc1-c1cc2c(nn1)OC(C)(C)[C@@H]1COCCN21` [Example 137, (S)-2-(1,1-Difluoroethyl)-N-(3-(6,6-dimethyl-6a,7,9,10-tetrahydro-6H-[1,4]oxazino[4,3-d]pyridazino[3,4-b][1,4]oxazin-2-yl)-4-methylphenyl)isonicotinamide] was tested. Which pIC50 did it give?
A: 9.62

Q: How did the pIC50 turn out when `Cc1ccc(NC(=O)c2ccnc(C(C)(F)F)c2)cc1-c1cc2c(nn1)OC(C)(C)[C@H]1COCCN21` [Example 138, (R)-2-(1,1-Difluoroethyl)-N-(3-(6,6-dimethyl-6a,7,9,10-tetrahydro-6H-[1,4]oxazino[4,3-d]pyridazino[3,4-b][1,4]oxazin-2-yl)-4-methylphenyl)isonicotinamide] was run?
A: 9.23

Q: How did the pIC50 turn out when `Cc1ccc(NC(=O)c2ccnc(C(C)(C)F)c2)cc1-c1cnc2c(c1)N1CCOC[C@H]1C[C@H]2O` [Example 142, 2-(2-fluoropropan-2-yl)-N-(3-((4aR,6R)-6-hydroxy-1,2,4,4a,5,6-hexahydro-[1,4]oxazino[4,3-a][1,5]naphthyridin-9-yl)-4-methylphenyl)isonicotinamide] was run?
A: 10.68

Q: How did the pIC50 turn out when `Cc1ccc(NC(=O)c2ccnc(C(C)(C)F)c2)cc1-c1cnc2c(c1)N1CCOC[C@@H]1C[C@@H]2O` [Example 143, 2-(2-fluoropropan-2-yl)-N-(3-((4aS,6S)-6-hydroxy-1,2,4,4a,5,6-hexahydro-[1,4]oxazino[4,3 a][1,5]naphthyridin 9-yl)-4-methylphenyl)isonicotinamide] was run?
A: 11.06

Q: `Cc1ccc(NC(=O)c2cncc(C(F)(F)F)c2)cc1-c1cnc2c(c1)N1CCOC[C@H]1C[C@H]2O` [Example 145, N-(3-((4aR,6R)-6-hydroxy-1,2,4,4a,5,6-hexahydro-[1,4]oxazino[4,3-a][1,5]naphthyridin-9-yl)-4-methylphenyl)-5-(trifluoromethyl)nicotinamide] was tested. Which pIC50 did it give?
A: 10.77

Q: With `Cc1ccc(NC(=O)c2cncc(C(F)(F)F)c2)cc1-c1cnc2c(c1)N1CCOC[C@@H]1C[C@@H]2O` [Example 146, N-(3-((4aS,6S)-6-hydroxy-1,2,4,4a,5,6-hexahydro-[1,4]oxazino[4,3-a][1,5]naphthyridin-9-yl)-4-methylphenyl)-5-(trifluoromethyl)nicotinamide] as the compound, how does the pIC50 read?
A: 10.92

Q: How did the pIC50 turn out when `Cc1ccc(NC(=O)c2ccnc(C(C)(C)C#N)c2)cc1-c1cnc2c(c1)N1CCOC[C@H]1C[C@H]2O` [Example 150, 2-(2-cyanopropan-2-yl)-N-(3-((4aR,6R)-6-hydroxy-1,2,4,4a,5,6-hexahydro-[1,4]oxazino[4,3-a][1,5]naphthyridin-9-yl)-4-methylphenyl)isonicotinamide] was run?
A: 10.10

Q: With `Cc1ccc(NC(=O)c2ccnc(C(C)(C)C#N)c2)cc1-c1cnc2c(c1)N1CCOC[C@@H]1C[C@@H]2O` [Example 151, 2-(2-cyanopropan-2-yl)-N-(3-((4aS,6S)-6-hydroxy-1,2,4,4a,5,6-hexahydro-[1,4]oxazino[4,3-a][1,5]naphthyridin-9-yl)-4-methylphenyl)isonicotinamide] as the compound, how does the pIC50 read?
A: 10.85

Q: With `Cc1ccc(NC(=O)c2ccnc(C(F)(F)F)c2)cc1-c1cnc2c(c1)N1CCOC[C@H]1C1(COC1)C2` [Example 154, (R)-N-(4-methyl-3-(1′,2′,4′,4a′-tetrahydro-6′H-spiro[oxetane-3,5′-[1,4]oxazino[4,3-a][1,5]naphthyridin]-9′-yl)phenyl)-2-(trifluoromethyl)isonicotinamide] as the compound, how does the pIC50 read?
A: 10.20

Q: With `Cc1ccc(NC(=O)c2ccnc(C(F)(F)F)c2)cc1-c1cnc2c(c1)N1CCOC[C@@H]1C1(COC1)C2` [Example 155, (S)-N-(4-methyl-3-(1′,2′,4′,4a′-tetrahydro-6′H-spiro[oxetane-3,5′-[1,4]oxazino[4,3-a][1,5]naphthyridin]-9′-yl)phenyl)-2-(trifluoromethyl)isonicotinamide] as the compound, how does the pIC50 read?
A: 9.44

Q: With `Cc1ccc(NC(=O)c2ccnc(C(C)(F)F)c2)cc1-c1cnc2c(c1)N1CCOC[C@H]1C(C)(C)[C@H]2O` [Example 161, 2-(1,1-difluoroethyl)-N-(3-((4aR,6R)-6-hydroxy-5,5-dimethyl-1,2,4,4a,5,6-hexahydro-[1,4]oxazino[4,3-a][1,5]naphthyridin-9-yl)-4-methylphenyl)isonicotinamide] as the compound, how does the pIC50 read?
A: 10.10
